Experimental data from publication PMC9312238, “Novel Organoselenium Redox Modulators with Potential Anticancer, Antimicrobial, and Antioxidant Activities” (Antioxidants, 2022).
≈ marks a conversion by molar mass, not a printed value.

How the values were obtained:
[1] = system: Candida albicans; experiment: MIC by microdilution, C. albicans; type: cell-based; settings: Candida albicans; microdilution; read-out: MIC (μM) C. albicans
Description: The antimicrobial activities of the OSe compounds were evaluated against C. albicans yeast, as well as E. coli and S. bacteria, employing the agar well diffusion assay. Furthermore, the MICs (in µM) were determined by the microdilution method according to the reported protocol. More details are in the Supporting Information. […]
(§1) 1.1.1. The antimicrobial activity
(§2) The antimicrobial activities of the OSe compounds were evaluated against C. albicans yeast as well as E. coli gram-negative and S. aureus gram-positive bacteria employing the agar well diffusion assay. Briefly, a concentration of 1 mM was prepared for each compound by dissolving in DMSO. Paper discs of standard size […] were steri-lized in an autoclave and soaked in 20 µL of the test compounds, and placed in the Petri dishes, which in turn contain a nutrient media (agar 20 g, peptone 5 g, and beef extract 3 g) seeded with the dedicated strain. Incubation lasted for 24 h at 36
(§3) Furthermore, the MICs (in µM) were determined by the microdilution method according to the reported protocol. […]
(§4) Inhibition%= (Ablank-Asample)/(Ablank)*100. (1)

[2] = system: Candida albicans; experiment: microbe, parasite or virus in culture; type: cell-based; design: C. albicans A% (activity index): concentration or dose not given beside the values; settings: for zone of inhibition at 20 µM: Candida albicans, inhibition zone diameter, six-mm disks soaked with 20 μM of compound, read-out: C. albicans IZD (mm); for C. albicans A% (activity index): zone of test compound / zone of standard (clotrimazole) x 100
Description: (§5) The antimicrobial activities of the OSe compounds were evaluated against C. albicans yeast, as well as E. coli and S. bacteria, employing the agar well diffusion assay. Furthermore, the MICs (in µM) were determined by the microdilution method according to the reported protocol. More details are in the Supporting Information.
(§6) Compounds were evaluated for their antimicrobial activity against the Gram-negative bacteria Escherichia coli (E. coli) and the Gram-positive bacteria Staphylococcus aureus (S. aureus), as well as the Candida albicans (C. albicans) fungal strain, using the agar diffusion assay. Ampicillin and clotrimazole were used as standards. Indeed, the antimicrobial properties of the OSe compounds were also obtained from the activity index percentage (A%) according to Equation (2). (2) A%=Zone of inhibition by test compound diametre/Zone of inhibition by standard diametre×100 . […]
as §1
The antimicrobial activities of the OSe compounds were evaluated against C. albicans yeast as well as E. coli gram-negative and S. aureus gram-positive bacteria employing the agar well diffusion assay. […]
compound by dissolving in DMSO. […]
Petri dishes, which in turn contain a nutrient media (agar 20 g, peptone 5 g, and beef extract 3 g) seeded with the dedicated strain. Incubation lasted for 24 h at 36
as §3, §4

[3] = system: MCF-7 cells; experiment: cells; type: cell-based, human; settings: for IC50: Homo sapiens, MCF7, MTT, 24 h incubation, MCF-7 cells, read-out: MCF7 IC50; for MCF7 TI (IC50 WI-38 / IC50 MCF-7): therapeutic index, ratio of WI-38 IC50 to MCF-7 IC50
Description: (§7) Cells were obtained from the ATCC Company (VACSERA), Cairo, Egypt. MTT assay were performed according to the literature method. More details are in the Supporting Information.
(§8) Recently, OSe compounds gained much attention as possible drug candidates due to their various pharmacological properties. […] Therefore, the anticancer attributes of the newly prepared OSe compounds were estimated using the MTT assay against MCF-7 and HepG2 and compared with their respective cytotoxicity in WI-38 primary cells. The anthracycline drug doxorubicin was used as the standard. […] Moreover, the therapeutic index (TI) was also calculated (according to Equation (1)), which is considered a measure of the selectivity and safety of the synthesized compounds. (1) TI=IC50 for the normal WI38 cells/IC50 for the cancer cells […]
(§9) 1.1. The biological assays
(§10) 1.1.1. The anticancer activity
(§11) The breast adenocarcinoma (MCF-7), Hepatocellular carcinoma (HEPG-2), and nor-mal fibroblast (WI-38) cells were obtained from ATCC via Holding company for biological products and vaccines (VACSERA), Cairo, Egypt.
(§12) DMSO, and fetal bovine serum was obtained from Sigma Aldrich. Dulbecco’s modified Eagle’s medium was used as the culture medium for the cells, and the cytotoxicity was evaluated using the reported MTT assay. Doxorubicin was used as the positive reference, and the IC50 values were obtained from the corresponding dose-response curve.
(§13) This colorimetric assay is based on converting the yellow tetrazolium bromide (MTT) to a purple formazan derivative by mitochondrial succinate dehydrogenase in viable cells. […]
(§14) added were 100 units/ml penicillin and 100µg/ml streptomycin at 37 C in a 5% Co2 incu-bator. The cell lines were seeded in a 96-well plate at a density of 1.0x10^4 cells/well. at 37 C for 48 h under 5% Co2. After incubation, the cells were treated with different concentra-tions of compounds and incubated for 24 h. After 24 h of drug treatment, 20 µl of MTT solution at 5mg/ml was added and incubated for 4 h. Finally, dimethyl sulfoxide (DMSO) in the volume of 100 µl is added to each well to dissolve the purple formazan formed. The colorimetric assay is measured and recorded at an absorbance of 570 nm using a plate […]
(§15) The percentage of the relative cell viability was calculated as (A570 of treated samples/A570 of the untreated sample) X 100. […]

[4] = system: WI-38 cells; experiment: cells; type: cell-based, human; settings: Homo sapiens; MTT, 24 h incubation, normal WI-38 cells; read-out: WI38 IC50
Description: as §7, §8, §9, §10, §11, §12, §13, §14, §15

[5] = system: HepG2 cells; experiment: cells; type: cell-based, human; settings: for IC50: Homo sapiens, MTT, 24 h incubation, HepG2 cells, read-out: HepG2 IC50; for HepG2 TI (IC50 WI-38 / IC50 HepG2): therapeutic index, ratio of WI-38 IC50 to HepG2 IC50
Description: as §7
Recently, OSe compounds gained much attention as possible drug candidates due to their various pharmacological properties. Our group has reported several OSe candidates with potential anticancer, antimicrobial, and antioxidant activities. Therefore, the anticancer attributes of the newly prepared OSe compounds were estimated using the MTT assay against MCF-7 and HepG2 and compared with their respective cytotoxicity in WI-38 primary cells. The anthracycline drug doxorubicin was used as the standard. The minimal inhibition concentration required to kill 50% of the cells (IC50) was calculated from dose-response curves presented in Table 1. Moreover, the therapeutic index (TI) was also calculated (according to Equation (1)), which is considered a measure of the selectivity and safety of the synthesized compounds. (1) TI=IC50 for the normal WI38 cells/IC50 for the cancer cells […]
as §9, §10
The breast adenocarcinoma (MCF-7), Hepatocellular carcinoma (HEPG-2), and nor-mal fibroblast (WI-38) cells were obtained from ATCC via Holding company for biological products and vaccines (VACSERA), Cairo, Egypt. The reagents RPMI-1640 medium, MTT, DMSO, and fetal bovine serum was obtained from Sigma Aldrich. Dulbecco’s modified Eagle’s medium was used as the culture medium for the cells, and the cytotoxicity was evaluated using the reported MTT assay. Doxorubicin was used as the positive reference, and the IC50 values were obtained from the corresponding dose-response curve.
This colorimetric assay is based on converting the yellow tetrazolium bromide (MTT) to a purple formazan derivative by mitochondrial succinate dehydrogenase in viable cells.
Cell lines were cultured in RPMI-1640 medium with 10% fetal bovine serum. Antibiotics added were 100 units/ml penicillin and 100µg/ml streptomycin at 37 C in a 5% Co2 incu-bator. The cell lines were seeded in a 96-well plate at a density of 1.0x10^4 cells/well. at 37 C for 48 h under 5% Co2. After incubation, the cells were treated with different concentra-tions of compounds and incubated for 24 h. After 24 h of drug treatment, 20 µl of MTT solution at 5mg/ml was added and incubated for 4 h. Finally, dimethyl sulfoxide (DMSO) in the volume of 100 µl is added to each well to dissolve the purple formazan formed. The colorimetric assay is measured and recorded at an absorbance of 570 nm using a plate reader (EXL 800, USA). The percentage of the relative cell viability was calculated as (A570 of treated samples/A570 of the untreated sample) X 100. […]
as §4

[6] = system: Staphylococcus aureus; experiment: Agar diffusion assay, S. aureus; type: cell-based; settings: for zone of inhibition at 20 µM: Staphylococcus aureus, inhibition zone diameter, six-mm disks soaked with 20 μM of compound, read-out: S. aureus IZD (mm)
Description: as §5, §6, §1, §2, §3, §4

[7] = system: Escherichia coli; experiment: Agar diffusion assay, E. coli; type: cell-based; settings: for zone of inhibition at 20 µM: Escherichia coli, inhibition zone diameter, six-mm disks soaked with 20 μM of compound, read-out: E. coli IZD (mm); for E. coli A% (activity index): zone of test compound / zone of standard (ampicillin) x 100
[8] = ABTS radical scavenging bioassay; type: biochemical
Description: (§16) The antioxidant activity was estimated by ABTS and DPPH bioassays, according to the reported literature method. More details are in the Supplementary Materials.
(§17) Recently, OSe compounds were thoroughly used as redox modulators to control many complicated diseases (e.g., cancer and neurodegenerative diseases). The DPPH and ABTS bioassays were extensively used as rapid tools for estimating the antioxidant potency of OSe compounds [50, 51]. Ascorbic acid was used as a standard control, and the antioxidant potency was measured by the ability of the compounds to decolorize the characteristic colors of the ABTS^. and DPPH^. radicals by following the colorimetric decline in absorbance at 734 and 517 nm, respectively (Figure 2).
Figure 2 Evaluation of the antioxidant properties of the OSe compounds employing the ABTS and DPPH assays. All measurements are mean ± SD. In the DPPH assay: absorbance was read after 0.5 h of mixing […] of DPPH with […] of OSe compounds (1 mM, MeOH) at 517 nm. In the ABTS assay: […] of each OSe compound (1 mM, phosphate-buffered methanol) was mixed with the ABTS solution (60 mM), and absorbance was monitored at 734 nm.
The antioxidant activity of the investigated compounds was assessed using 2,2’-az-ino-bis(3-ethylbenzothiazoline-6-sulphonic acid (ABTS) method. The radical cation derived from ABTS was prepared by the reaction of 60 mM ABTS solution with 0.3 M manganese dioxide solution in 0.1M phosphate buffer, pH 7. Then, the mixture was shaken, centrifuged, filtered, and the absorbance (Acontrol) of the resulting green-blue solu-tion (ABTS radical solution) was measured at wavelength 734 nm. Then, […] of 1 mg/ml test compound in phosphate-buffered methanol was added. The absorbance (Atest) was measured. The reduction in color intensity was expressed as % inhibition. The % inhibi-tion for each compound is calculated from the following equation
Inhibition% = (Acontrol-Asample)/(Acontrol)*100
Ascorbic acid (vitamin C) was used as a standard antioxidant (positive control). A blank sample was run without ABTS and using MeOH/phosphate buffer (1:1) instead of the sample. A negative control sample was run with MeOH/phosphate buffer (1:1) instead

[9] = DPPH radical scavenging bioassay; type: biochemical
Description: as §16, §17
Figure 2 Evaluation of the antioxidant properties of the OSe compounds employing the ABTS and DPPH assays. All measurements are mean ± SD. In the DPPH assay: absorbance was read after 0.5 h of mixing […] of DPPH with […] of OSe compounds (1 mM, MeOH) at 517 nm. In the ABTS assay: […] of each OSe compound (1 mM, phosphate-buffered methanol) was mixed with the ABTS solution (60 mM), and absorbance was monitored at 734 nm. […]
1.1.1. The antioxidant activity
The hydrogen atom or electron donation ability of the corresponding compounds was measured by estimating the bleaching of the purple color of a methanolic solution of DPPH [29]. This spectrophotometric assay uses stable DPPH. reagent. The sample was prepared by adding […] of the OSe compounds (1 mM in methanol) to […] DPPH in methanol. After 30 min of incubation in the dark, the absorbance was read against a blank at 517 nm. Ascorbic acid (vitamin C) and ebselen were used as standard antioxi-dants (positive control). A blank sample was run without DPPH. A negative control sam-ple was run using methanol instead of the sample. The radical scavenging activity was calculated using the following equation:
as §4

[10] = concentration decreasing absorbance by 50%

| SMILES | MIC [1] [µM] | zone of inhibition at 20 µM [2] [mm] | C. albicans A% (activity index) [2] [%] | IC50 [3] [µM] | MCF7 TI (IC50 WI-38 / IC50 MCF-7) [3] | IC50 [4] [µM] | IC50 [5] [µM] | HepG2 TI (IC50 WI-38 / IC50 HepG2) [5] | zone of inhibition at 20 µM [6] [mm] | zone of inhibition at 20 µM [7] [mm] | E. coli A% (activity index) [7] [%] | melting point [°C] | S. aureus A% (activity index) ([6]; zone of test compound / zone of standard (ampicillin) x 100) [%] | radical scavenging activity, ABTS assay ([8]; compound 1 mM in phosphate-buffered methanol, 734 nm) [%] | IC50 [8, 10] [µM] | radical scavenging activity, DPPH assay ([9]; compound 1 mM in MeOH, read after 0.5 h at 517 nm) [%] | IC50 [9, 10] [µM] |
| --- | --- | --- | --- | --- | --- | --- | --- | --- | --- | --- | --- | --- | --- | --- | --- | --- | --- |
| Clc1ccccc1C(c1ccccc1)(c1ccccc1)n1ccnc1 [Clotrimazole, clotrimazole, reference compound] | 2 (≈ 0.69 µg/mL) | 24 | 100 | – | – | – | – | – | – | – | – | – | – | – | – | – | – |
| CC(=O)Nc1ccc([Se]CC(=O)Nc2ccccc2)cc1 [Compound 18, 2-((4-acetamidophenyl)selanyl)-N-phenylacetamide] | – | 11 | 46 | 43.5 ± 2.6 | 2 | 85.1 ± 4.7 | 47.6 ± 2.8 | 1.8 | 8 | 6 | 26 | 161 to 162 | – | – | – | – | – |
| CN(C)C=Nc1ccc([Se]CC(=O)Nc2ccccc2)cc1 [Compound 20, 2-((4-(((dimethylamino)methylene)amino)phenyl)selanyl)-N-phenylacetamide] | – | 11 | 46 | 36.8 ± 2.4 | 2.7 | > 100 | 40.3 ± 2.5 | 2.5 | 9 | 8 | 35 | 118 to 120 | 43 | – | – | – | – |
| O=C1O[C@H]([C@@H](O)CO)C(O)=C1O [Vitamin C, Ascorbic acid, reference compound] | – | – | – | – | – | – | – | – | – | – | – | – | – | 88 | 28.16 ± 0.19 | 95 | 19.18 ± 0.13 |
